In BindingDB's records for doi:10.1021/acsmedchemlett.7b00164 (Shenyang Pharmaceutical University, 2017):

Assay: Inhibition of PDGFR in mouse NIH/3T3 cells assessed as reduction in recombinant human PDGF-BB-induced cell proliferation after 42 hrs by cell titer 96 aqueous one solution based assay
Compound `COC(=O)c1ccc2c(c1)NC(=O)/C2=C(\Nc1ccc2c(c1)N(C(=O)CN1CCOCC1)CC2)c1ccccc1` has an IC50 of 0.1 µM.
Work on `COC(=O)c1ccc2c(c1)NC(=O)/C2=C(\Nc1ccc(N(C)C(=O)CN2CCN(C)CC2)cc1)c1ccccc1` [BIBF-1120] yielded an IC50 of 0.085 µM.
For `COC(=O)c1ccc2c(c1)NC(=O)/C2=C(\Nc1ccc2c(c1)N(C(=O)CN1CC(C)OC(C)C1)CC2)c1ccccc1` (centres undefined), the IC50 was 0.15 µM.
In the case of `COC(=O)c1ccc2c(c1)NC(=O)/C2=C(\Nc1ccc2c(c1)N(C(=O)CN1CCCC1=O)CC2)c1ccccc1`, the IC50 is reported as 0.26 µM.
With `COC(=O)c1ccc2c(c1)NC(=O)/C2=C(\Nc1ccc(N2C(=O)CC[C@H]2CN2CCN(C)CC2)cc1)c1ccccc1` the IC50 was 0.11 µM.
`COC(=O)c1ccc2c(c1)NC(=O)/C2=C(\Nc1ccc2c(c1)N(C(=O)Cn1cccn1)CC2)c1ccccc1` showed an IC50 of 0.11 µM.
Compound `COC(=O)c1ccc2c(c1)NC(=O)/C2=C(\Nc1ccc(N2C(=O)CC[C@@H]2CN2CCN(C)CC2)cc1)c1ccccc1` has an IC50 of 0.097 µM.
For `COC(=O)c1ccc2c(c1)NC(=O)/C2=C(\Nc1ccc2c(c1)N(C(=O)Cn1cncn1)CC2)c1ccccc1`, the IC50 was 0.1 µM.
Compound `COC(=O)c1ccc2c(c1)NC(=O)/C2=C(\Nc1ccc(N2CCC(CN3CCN(C)CC3)C2=O)cc1)c1ccccc1` (centres undefined) has an IC50 of 0.11 µM.
